The record followed here is US20240246920A1, “TRIAZOLE DERIVATIVES WITH ANTIFUNGAL ACTIVITY” (King's College London, priority 2020, published 2024).

The subject of one assay is C. auris TDG1912. Briefly: Candida panel MIC, serial dilution in 96-well plates. The class given is cell-based. Particulars: Candidozyma auris, TDG1912; Table 4; 24 hours, ≥50% inhibition; read-out: MIC C. auris TDG1912. As to the method: (§1) The minimum inhibitory concentration of test compounds were determined in a panel of Candida species (see Table 4 below), using the a serial dilution method in 96-well plates using the following protocol.
(§2) Starter cultures of fungal strains to be tested were grown in 3 mL of RPMI 2% glucose media incubated at 37° C. with shaking at 200 rpm overnight. The culture media used was 900 mL H2O; 10.4 g RPMI 1640 (with L-glutamine and a pH indicator but without bicarbonate); 34.5 g MOPS and 18 g glucose. The pH of the media was adjusted to 7.0 with 1 M sodium hydroxide.
(§3) Solutions of the compound to be tested were prepared by dissolving the compound in DMSO and subsequently into media to the desired concentrations. 200 μL of compound solution was then added to the wells of the 96-well plate using a serial dilution method row-by row of the plate to give a compound concentration gradient across the plate of from 128 μg/mL to 0.25 μg/mL. The last two rows of each plate were control rows containing the culture media alone and the media plus fungi.
(§4) The fungi starter cultures were diluted 1:10 in water in cuvettes. This was then further diluted to an optical density (OD600) of 0.01 in media. 100 μL of the fungi was added to each well giving a starting concentration of fungus of 0.5-5×10^5/mL. One species of fungus was used on each plate. The plates were then held at 37° C. for 24 hours.
(§5) A plate reader was used to measure growth in each well at OD530 nm and the MIC was determined for each test compound. The MIC is defined as the lowest concentration giving rise to inhibition of ≥50% of that of the drug-free control well containing the fungus and media.

The test system of a further assay is C. tropicalis NCPF8760. The description is as above. The assay is classed as cell-based. The following applies: NCPF8760, Table 4, common panel, 24 hours, ≥50% inhibition, read-out: MIC C. tropicalis NCPF8760. Here is the method:
as §1, §2, §3, §4, §5

The next assay concerns Candida auris TDG2512. The assay is described as above. The class given is cell-based. Particulars: Candidozyma auris, TDG2512; Table 4, extended panel; 24 hours, ≥50% inhibition; read-out: MIC Candida auris TDG2512. As to the method: as §1, §2, §3, §4, §5
The next assay deals with Candida auris TDG1102. The description is as above. Particulars: Candidozyma auris, TDG1102; Table 4, extended panel; 24 hours, ≥50% inhibition; read-out: MIC Candida auris TDG1102. The assay is classed as cell-based. Here is the method: as §1, §2, §3, §4, §5
For a further assay, the system named is C. albicans NCPF3281. The description is as above. The following applies: Candida albicans, NCPF3281; Table 4, common panel; 24 hours, ≥50% inhibition; read-out: MIC C. albicans NCPF3281. The assay is classed as cell-based, Candida albicans. As to the method:
as §1, §2, §3, §4, §5

For the next assay, the system named is C. auris 8984. The assay is described as above. The class given is cell-based, Candida auris. Particulars: Candidozyma auris, 8984; Table 4, extended panel; 24 hours, ≥50% inhibition; read-out: MIC C. auris 8984. Here is the method:
as §1, §2
(§6) Solutions of the compound to be tested were prepared by dissolving the compound in DMSO and subsequently into media to the desired concentrations. […] The last two rows of each plate were control rows containing the culture media alone and the media plus fungi.
as §4, §5
(§7) The Candida auris strains shown in Table 7 were either taken from the National Collection of Pathogenic Fungi (NCPF) or collected as part of ongoing surveillance studies. The strains were characterised as follows.

In another assay the test system is C. auris 8977. The assay is described as above. Particulars: Candidozyma auris, 8977; Table 4, extended panel; 24 hours, ≥50% inhibition; read-out: MIC C. auris 8977. The assay is classed as cell-based, Candida auris. As to the method: as §1, §2, §6, §4, §5, §7
The subject of a further assay is C. auris 8971. Described as above. The assay is classed as cell-based, Candida auris. Particulars: Candidozyma auris, 8971; Table 4, extended panel; 24 hours, ≥50% inhibition; read-out: MIC C. auris 8971. Here is the method: as §1, §2, §6, §4, §5, §7
Another assay relates to C. glabrata NCPF8018. Described as above. The class given is cell-based, Candida glabrata. The following applies: Nakaseomyces glabratus, NCPF8018; Table 4, common panel; 24 hours, ≥50% inhibition; read-out: MIC C. glabrata NCPF8018. Here is the method:
as §1, §2, §6, §4, §5

A further assay deals with C. parapsilosis NCPF3209. Description: microbe, parasite or virus in culture. The following applies: Lodderomyces parapsilosis, NCPF3209; Table 4, common panel; 24 hours, ≥50% inhibition; read-out: MIC C. parapsilosis NCPF3209. The class given is cell-based, Candida parapsilosis. As to the method:
as §1, §2, §6, §4, §5

A further assay has as its system C. krusei NCPF3876. Briefly: microbe, parasite or virus in culture. The assay is classed as cell-based, Candida krusei. The following applies: Pichia kudriavzevii, NCPF3876; Table 4, common panel; 24 hours, ≥50% inhibition; read-out: MIC C. krusei NCPF3876. As to the method:
as §1, §2, §6, §4, §5

A further assay relates to Candida auris TDG2506. Description: microbe, parasite or virus in culture. Particulars: Candidozyma auris, TDG2506; Table 4, extended panel; 24 hours, ≥50% inhibition; read-out: MIC Candida auris TDG2506. The assay is classed as cell-based. Here is the method:
as §1, §2, §6, §4, §5, §7

The next assay concerns Candida auris TDG2211. Briefly: microbe, parasite or virus in culture. The assay is classed as cell-based. The following applies: Candidozyma auris, TDG2211; Table 4, extended panel; 24 hours, ≥50% inhibition; read-out: MIC Candida auris TDG2211. Here is the method: as §1, §2, §6, §4, §5, §7

The structures appear in SMILES notation. Values after ≈ are worked out from the molar mass of the structure shown.

For `OC(CN1CCCC(Nc2ccc(OCCN3CCOCC3)cc2)CC1)(Cn1cncn1)c1ccc(F)cc1F` (centres unmarked) [Example 91], the MIC in the assay on C. auris TDG1912 was determined as 4 µg/mL (≈ 7.19 µM); in the assay with C. tropicalis NCPF8760, 8 µg/mL (≈ 14.4 µM); with Candida auris TDG2512 it was 0.125 µg/mL (≈ 0.225 µM); in the assay on Candida auris TDG1102, 2 µg/mL (≈ 3.59 µM); in the assay on C. albicans NCPF3281 it was 0.0156 µg/mL (≈ 0.0281 µM); with C. auris 8984, 4 µg/mL (≈ 7.19 µM). In addition, the MIC in the assay on C. auris 8977 is 0.5 µg/mL (≈ 0.898 µM); with C. auris 8971 it was 0.5 µg/mL (≈ 0.898 µM); with C. glabrata NCPF8018, 16 µg/mL (≈ 28.7 µM); in the assay on C. parapsilosis NCPF3209, 0.0625 µg/mL (≈ 0.112 µM); in the assay with C. krusei NCPF3876, 2 µg/mL (≈ 3.59 µM); in the assay with Candida auris TDG2506, 4 µg/mL (≈ 7.19 µM). Also, the MIC in the assay with Candida auris TDG2211 was found to be 0.25 µg/mL (≈ 0.449 µM).

Take `OC(CN1CC2CN(c3ncc(F)cn3)CC2C1)(Cn1cncn1)c1ccc(F)cc1F` (centres unmarked) [Example 15, 2-(2,4-difluorophenyl)-1-(5-(5-fluoropyrimidin-2-yl)hexahydropyrrolo[3,4-c]pyrrol-2(1H)-yl)-3-(1H-1,2,4-triazol-1-yl)propan-2-ol]: the MIC in the assay on C. auris TDG1912 stood at 8 µg/mL (≈ 18 µM); in the assay on C. tropicalis NCPF8760, 8 µg/mL (≈ 18 µM); in the assay on Candida auris TDG2512, 4 µg/mL (≈ 8.98 µM); in the assay with Candida auris TDG1102, 8 µg/mL (≈ 18 µM); in the assay with C. albicans NCPF3281, 0.12 µg/mL (≈ 0.269 µM); with C. auris 8984, 32 µg/mL (≈ 71.8 µM). For the same molecule, the MIC is 1 µg/mL (≈ 2.24 µM) with C. auris 8977; 0.5 µg/mL (≈ 1.12 µM) in the assay with C. auris 8971; 1 µg/mL (≈ 2.24 µM) in the assay on C. glabrata NCPF8018; 0.125 µg/mL (≈ 0.281 µM) with C. parapsilosis NCPF3209; 4 µg/mL (≈ 8.98 µM) with C. krusei NCPF3876; over 128 µg/mL with Candida auris TDG2506. Besides, in the assay on Candida auris TDG2211, the MIC is 4 µg/mL (≈ 8.98 µM).

Consider `COCCOc1ccc(NC2CCN(CC(O)(Cn3cncn3)c3ccc(F)cc3F)CC2)cc1` (centres unmarked) [Example 96], for which the MIC is 0.125 µg/mL (≈ 0.256 µM) in the assay with C. auris TDG1912; 1 µg/mL (≈ 2.05 µM) in the assay with C. tropicalis NCPF8760; 4 µg/mL (≈ 8.2 µM) in the assay with Candida auris TDG2512; 0.06 µg/mL (≈ 0.123 µM) with Candida auris TDG1102; 0.0078 to 0.0156 µg/mL (≈ 0.016 to 0.032 µM) in the assay on C. albicans NCPF3281; 0.25 µg/mL (≈ 0.513 µM) in the assay on C. auris 8984. The MIC in the assay on C. auris 8977 came to 0.06 µg/mL (≈ 0.123 µM); in the assay with C. auris 8971, 0.06 µg/mL (≈ 0.123 µM); in the assay with C. glabrata NCPF8018, 4 µg/mL (≈ 8.2 µM); in the assay with C. parapsilosis NCPF3209, 0.0156 µg/mL (≈ 0.032 µM); in the assay on C. krusei NCPF3876, 0.5 µg/mL (≈ 1.03 µM); in the assay on Candida auris TDG2506 it was 0.06 µg/mL (≈ 0.123 µM). For the same molecule, in the assay with Candida auris TDG2211, the MIC lay within 0.0156 to 0.06 µg/mL (≈ 0.032 to 0.123 µM).

Take `OC(CN1CCC(N2CCC(Nc3ccc(OCCN4CCOCC4)cc3)CC2)CC1)(Cn1cncn1)c1ccc(F)cc1F` (centres unmarked) [Example 92]: the MIC in the assay on C. auris TDG1912 was 32 µg/mL (≈ 51.1 µM); in the assay on C. tropicalis NCPF8760, over 32 µg/mL; in the assay on Candida auris TDG2512, 4 µg/mL (≈ 6.39 µM); in the assay on Candida auris TDG1102, 32 µg/mL (≈ 51.1 µM); in the assay on C. albicans NCPF3281, 2 µg/mL (≈ 3.2 µM); with C. auris 8984, 32 µg/mL (≈ 51.1 µM). Further, the MIC is 8 µg/mL (≈ 12.8 µM) in the assay with C. auris 8977; 16 µg/mL (≈ 25.6 µM) with C. auris 8971; over 32 µg/mL in the assay with C. glabrata NCPF8018; 2 to 8 µg/mL (≈ 3.2 to 12.8 µM) in the assay on C. parapsilosis NCPF3209; over 32 µg/mL with C. krusei NCPF3876; 32 µg/mL (≈ 51.1 µM) with Candida auris TDG2506. In addition, in the assay with Candida auris TDG2211, the MIC lay in the range of 8 to 32 µg/mL (≈ 12.8 to 51.1 µM).

Turning to `OC(CN1CCC(Nc2ccc(Cc3ccc(F)cc3)cc2)CC1)(Cn1cncn1)c1ccc(F)cc1F` (centres unmarked) [Example 30, 2-(2,4-difluorophenyl)-1-(4-((4-(4-fluorobenzyl)phenyl)amino)piperidin-1-yl)-3-(1H-1,2,4-triazol-1-yl)propan-2-ol], the MIC in the assay on C. auris TDG1912, in the assay on C. tropicalis NCPF8760, in the assay with Candida auris TDG2512, in the assay with Candida auris TDG1102, with C. albicans NCPF3281 and in the assay on C. auris 8984 was at most 0.125 µg/mL throughout. Further, the MIC in the assay on C. auris 8977, in the assay on C. auris 8971, with C. glabrata NCPF8018, with C. parapsilosis NCPF3209, in the assay on C. krusei NCPF3876 and in the assay with Candida auris TDG2506 was at most 0.125 µg/mL each time. The MIC in the assay on Candida auris TDG2211 is at most 0.125 µg/mL.
